Assay results from patent publication US5658885A, “Amidino and guanidino substituted boronic acid inhibitors of trypsin-like enzymes” (The DuPont Merck Pharmaceutical Company, priority 1994, dated 1997).
pKi: −log10 of the molar value. Structures can show the parent of a compound that is named as a salt.

What was measured:
[1] = target: T1, human thrombin (Homo sapiens, UniProt P00734); assay: Inhibition of thrombin hydrolysis of chromogenic substrate S2238 (Ki); format: biochemical; conditions: S2238, pH 7.5
T1 construct: 0.2-0.5 nM human thrombin or human factor Xa; purchased Enzyme Research Laboratories, South Bend, Ind
Procedure: (§1) The effectiveness of compounds of the present invention as inhibitors of blood coagulation proteases was determined using purified human proteases and synthetic substrates following procedures similar to those described in Kettner et al. (1990).
(§2) For these assays, the rate of enzymatic (thrombin, Factor Xa, and Factor VIIa) hydrolysis of chromogenic substrates (S2238 (H-D-Phe-Pip-Arg-pNA), S2222, and S2288, respectively; Kabi Pharmacia, Franklin, Ohio) was measured both in the absence and presence of compounds of the present invention. […] A decrease in the rate of absorbance change at 405 nm in the presence of inhibitor is indicative of enzyme inhibition. The results of this assay are expressed as inhibitory constant, Ki.
(§3) Thrombin and Xa determinations were made in 0.10M sodium phosphate buffer, pH 7.5, containing 0.20M NaCl, and 0.5% PEG 8000. VIIa determinations were made in 0.05M tris buffer, pH 7.6, containing 0.10M NaCl, 4 mM CaCl2, and 0.1% bovine serum albumin.
(§4) Reactions were allowed to go for 30 minutes and the velocities (rate of absorbance change vs time) were measured in the time frame of 25-30 minutes. The following relationship was used to calculate Ki values. [formula] where: vo is the velocity of the control in the absence of inhibitor;
(§5) vs is the velocity in the presence of inhibitor;
(§6) I is the concentration of inhibitor;
(§7) Ki is the dissociation constant of the enzyme: inhibitor complex;
(§8) S is the concentration of substrate;
(§9) Km is the Michaelis constant.

[2] = target: T2, human factor Xa (Homo sapiens, UniProt P00742); assay: Inhibition of Factor Xa hydrolysis of chromogenic substrate S2222 (Ki); format: biochemical; conditions: S2222, pH 7.5
T2 construct: 0.2-0.5 nM human thrombin or human factor Xa; purchased Enzyme Research Laboratories, South Bend, Ind
Procedure: as §1, §2, §3, §4, §5, §6, §7, §8, §9

T2 sequence (P00742 235-488 limits assumed): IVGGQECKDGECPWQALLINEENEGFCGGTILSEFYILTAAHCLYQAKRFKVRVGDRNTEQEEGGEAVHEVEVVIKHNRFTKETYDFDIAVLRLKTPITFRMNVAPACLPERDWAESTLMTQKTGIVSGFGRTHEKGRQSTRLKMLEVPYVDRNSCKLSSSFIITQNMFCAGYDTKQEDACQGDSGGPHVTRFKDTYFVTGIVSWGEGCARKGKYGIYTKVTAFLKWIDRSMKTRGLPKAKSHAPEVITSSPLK
T2 sequence (P00742 41-179 limits assumed): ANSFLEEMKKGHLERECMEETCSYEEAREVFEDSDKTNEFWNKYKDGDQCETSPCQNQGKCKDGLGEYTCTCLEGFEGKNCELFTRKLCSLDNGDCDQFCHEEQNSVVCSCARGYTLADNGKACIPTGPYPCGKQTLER

Molecule | pKi [1] | pKi [2]
CC1(C)C2CC3OB(C(Cc4cccc(C#N)c4)NC(=O)C4CCCN4C(=O)[C@@H](Cc4cccnc4)NS(C)(=O)=O)OC3(C)C1C2 (stereo partly shown) [Example 32, Ms--(D)3-Pyridylalanine-Pro--boroPhe(m-CN)--C10 H16] | > 6.30 | > 6.30
Boc--(D)Thiazolylalanine-Pro--boroPhe(m-CN)--C10 H16 [Example 27] | > 6.30 | > 6.30
CH3 (CH2)3 SO2 --(D)Phe--Pro--boroArg(CH3)--OH.HCl [Example 65] | > 6.30 | –
CC(=O)NCC(=O)N[C@H](Cc1ccccc1)C(=O)N1CCC[C@H]1C(=O)NC(CCCNS(C)(=O)=O)B1OC2CC3CC(C3(C)C)C2(C)O1 (stereo partly shown) [Example 118, Ac--Gly--(D)Phe--Pro--BoroOrn(N-Methanesulfonyl)-C10 H16] | > 6.30 | –
CNC(=NC#N)NCCCC(NC(=O)C1CCCN1C(=O)C(Cc1ccccc1)NC(=O)OC(C)(C)C)B1OC2CC3CC(C3(C)C)C2(C)O1 (stereo not shown) [Example 105, Boc--(D)Phe--Pro--boroOrn--[C(NCN)NHCH3]--C10 H16] | > 6.30 | –
CC(=O)NC(Cc1ccccc1)C(=O)N1CCCC1C(=O)NC(Cc1cccc(CN)c1)B1OC2CC3CC(C3(C)C)C2(C)O1 (stereo not shown) [Example 13, Ac--(D)Phe--Pro--boroPhe--(m-CH2NH2)--C10 H16.HCl] | > 6.30 | –
CC1(C)C2CC3OB(C(CCCNS(C)(=O)=O)NC(=O)C4CCCN4C(=O)C(Cc4ccccc4)NS(C)(=O)=O)OC3(C)C1C2 (stereo not shown) [Example 116, Methanesulfonyl-(D)Phe--Pro--boroOrn(N-Methanesulfonyl)-C10 H16] | > 6.30 | –
CC1(C)C2CC3OB(C(Cc4cccc(C#N)c4)NC(=O)C4CCN4C(=O)C(N)Cc4ccccc4)OC3(C)C1C2 (stereo not shown) [Example 47, H--(D)Phe--Aze--boroPhe(m-CN)--C10 H16.HCl] | > 6.30 | –
CC1(C)C2CC3OB(C(CCCON)NC(=O)C4CCCN4C(=O)C(Cc4ccccc4)NS(=O)(=O)Cc4ccccc4)OC3(C)C1C2 (stereo not shown) [Example 103, PhCH2 SO2 --(D)Phe--Pro--boroGly[(CH2)3 --ONH2]--C10 H16.HCl] | > 6.30 | –
CC(C)(C)OC(=O)N[C@H](Cc1ccccc1)C(=O)N1CCC[C@H]1C(=O)NC(CCCNC=N)B1OC2CC3CC(C3(C)C)C2(C)O1 (stereo partly shown) [Example 6, Boc--(D)Phe--Pro--boroOrn(CH=NH)]--C10 H16.0.5 HCl.0.5 BSA] | > 6.30 | –
CC(=O)NC(Cc1ccccc1)C(=O)N1CCCC1C(=O)NC(Cc1ccc(C(=N)N)cc1)B1OC2CC3CC(C3(C)C)C2(C)O1 (stereo not shown) [Example 22, Ac--(D)Phe--Pro--boroPhe(p-C(NH)NH2)--C10 H16.BSA] | > 6.30 | –
Boc--(D)Phe--Aze--boroOrn(CH=NH)--OH.HCl [Example 74] | > 6.30 | –
H--(D)Phe--Pro--boroOrn(CH=NH)]--C10 H16.0.5 HCl.0.5 BSA [Example 8] | > 6.30 | –
CC(=O)NC(Cc1ccccc1)C(=O)N1CCCC1C(=O)NC(Cc1ccc(CN)cc1)B1OC2CC3CC(C3(C)C)C2(C)O1 (stereo not shown) [Example 21, Ac--(D)Phe--Pro--boroPhe(p-CH2 NH2)--C10 H16.BSA] | > 6.30 | –
CCOCCCC(NC(=O)C1CCCN1C(=O)C(Cc1ccccc1)NC(=O)OC(C)(C)C)B1OC2CC3CC(C3(C)C)C2(C)O1 (stereo not shown) [Example 121, Boc--(D)Phe--Pro--boroGly[(CH2)3 --OCH2 CH3]--C10 H16] | > 6.30 | –
CN(C)[C@H](Cc1ccccc1)C(=O)N1CCCC1C(=O)NC(CCCNS(C)(=O)=O)B1OC2CC3CC(C3(C)C)C2(C)O1 (stereo partly shown) [Example 117, N,N-dimethyl-(D)Phe--Pro--boroOrn-(N-Methanesulfonyl)-C10 H16.HCl] | > 6.30 | –
CN(C(=O)OC(C)(C)C)C(Cc1ccccc1)C(=O)N1CCCC1C(=O)NC(Cc1cccc(C#N)c1)B1OC2CC3CC(C3(C)C)C2(C)O1 (stereo not shown) [Example 33, N--Boc--N--CH3 --(D)Phe--Pro--boroPhe(m-CN)--C10 H16] | > 6.30 | –
CC(=O)NC(Cc1ccccc1)C(=O)N1CCCC1C(=O)NC(CCCCC(=N)N)B1OC2CC3CC(C3(C)C)C2(C)O1 (stereo not shown) [Example 2, Ac--(D)Phe--Pro--NH--CH[(CH2)4 --C(NH)NH2]BO2 C10 H16.BSA] | > 6.30 | –
COC(=O)C(Cc1cccc(C#N)c1)NC(=O)C1CCCN1C(=O)C(Cc1ccccc1)NC(=O)OC(C)(C)C [Example 129, Boc--(D)Phe--Pro--(R)Phe(mCN)--OMe] | > 6.30 | –
COCCCC(NC(=O)C1CCCN1C(=O)C(N)Cc1ccccc1)B1OC2CC3CC(C3(C)C)C2(C)O1 (stereo not shown) [Example 139, H--(D)--Phe--Pro--boroGly[(CH2)3 --OCH3]--C10 H16] | > 6.30 | –
CC1(C)C2CC3OB(C(Cc4cccc(C#N)c4)NC(=O)C4CCCN4C(=O)CSc4ncccn4)OC3(C)C1C2 (stereo not shown) [Example 41, (2-Pyrimidylthio)acetyl-Pro--boroPhe(m-CN)--C10 H16] | > 6.30 | –
Hydrocinnamoyl-Pro--boroArg(CH3)--OH.HCl [Example 55] | > 6.30 | –
HOOCCH2 --(D)Phe--Pro--boroOrn(CONH2)--C10 H16.HCl [Example 111] | > 6.30 | –
N#Cc1cccc(CC(NC(=O)C2CCCN2C(=O)C(Cc2ccccc2)NC(=O)CCC(=O)O)B(O)O)c1 (stereo not shown) [Example 44, Succinyl-(D)Phe--Pro--boroPhe(m-CN)--OH] | > 6.30 | –
CC1(C)C2CC3OB(C(Cc4cccc(C#N)c4)NC(=O)C4CCCN4C(=O)CCc4cccnc4)OC3(C)C1C2 (stereo not shown) [Example 45, 3-Pyridylpropionyl-Pro--boroPhe(m-CN)--C10 H16] | > 6.30 | –
Ac--(D)--Phe--Pro--boroGly[(CH2)3 --OCH3 ]--C10 H16 [Example 137] | > 4.30 | –
CC(=O)NC(Cc1ccccc1)C(=O)N(C)CC(=O)NC(CCCNC=N)B(O)O (stereo not shown) [Example 67, Ac--(D)Phe--Sar--boroOrn(CH=NH)--OH.HCl] | > 6.30 | –
CC(C)(C)OC(=O)NC(Cc1ccccc1)C(=O)N1CCCC1C(=O)NC(CCCC#N)B1OC2CC3CC(C3(C)C)C2(C)O1 (stereo not shown) [Example 122, Boc--(D)Phe--Pro--boroGly[(CH2)3 --CN]--C10 H16] | > 4.30 | –

The next lines start with the values.

pKi [1] | pKi [2] | Molecule
> 6.30 | – | CC1(C)C2CC3OB(C(CCCNC=N)NC(=O)c4ccc(-c5ccccc5)cc4)OC3(C)C1C2 (stereo not shown) [Example 76, 4-(Phenyl)benzoyl-boroOrn(CH=NH)--C10 H16.HCl]
> 6.30 | – | PhSO2 --(D)Phe--Pro--boroOrn(CH=NH)--OH.HCl [Example 59]
> 6.30 | – | CC(C)(C)OC(=O)NC(Cc1ccccc1)C(=O)N1CCCC1C(=O)NC(CCCNC(N)=O)B1OC2CC3CC(C3(C)C)C2(C)O1 (stereo not shown) [Example 108, Boc--(D)Phe--Pro--boroOrn(CONH2)--C10 H16]
> 6.30 | – | CC(C)(C)OC(=O)N[C@H](Cc1ccccc1)C(=O)N1CCCC1C(=O)NC(CCCNS(C)(=O)=O)B1OC2CC3CC(C3(C)C)C2(C)O1 (stereo partly shown) [Example 113, Boc--(D)Phe--Pro--boroOrn(N-Methanesulfonyl)--C10 H16]
> 6.30 | – | H--(D)Phe--Pro--boroOrn(CONH2)--C10 H16.HCl [Example 109]
> 6.30 | – | N#Cc1cccc(CC(NC(=O)C2CCCN2C(=O)C(N)Cc2ccccc2)B(O)O)c1 (stereo not shown) [Example 19, H--(D)Phe--Pro--boroPhe(m-CN)--OH.HCl]
> 6.30 | – | N-alpha-[boroOrn(CH=NH)--OH]-(2-trans benzylcarboxamido)-cyclopentane-1-carboxamide.HCl [Example 71]
> 6.30 | – | CC(=O)Nc1ccc(S(=O)(=O)NC(Cc2ccccc2)C(=O)N2CCCC2C(=O)NC(CCCNS(C)(=O)=O)B2OC3CC4CC(C4(C)C)C3(C)O2)cc1 (stereo not shown) [Example 115, 4-(N-Acetyl)Anilinesulfonyl-(D)Phe--Pro--boroOrn(N-Methanesulfonyl)-C10 H16]
> 6.30 | – | CC(=O)N[C@H](Cc1ccccc1)C(=O)N1CCC[C@H]1C(=O)N[C@@H](Cc1cccc(Br)c1)B1O[C@@H]2C[C@@H]3C[C@@H](C3(C)C)[C@]2(C)O1 [Example 14, Ac--(D)Phe--Pro--boroPhe(m-Br)--C10 H16]
> 6.30 | – | CC(C)(C)OC(=O)NC(Cc1ccccc1)C(=O)N1CCCC1C(=O)NC(CCCNC(=O)CO)B1OC2CC3CC(C3(C)C)C2(C)O1 (stereo not shown) [Example 112, Boc--(D)Phe--Pro--boroOrn(COCH2 OH)--C10 H16]
> 4.30 | – | CC1(C)C2CC3OB(C(Cc4cccc(C#N)c4)NC(=O)C4CCCN4)OC3(C)C1C2 (stereo not shown) [Example 26, H--Pro--boroPhe(m-CN)--C10 H16.HCl]
> 6.30 | – | CN(CC(=O)NC(CCCNC=N)B(O)O)C(=O)C(Cc1ccccc1)NS(=O)(=O)CCc1ccccc1 (stereo not shown) [Example 69, Phenethyl-SO2 --(D)Phe--Sar--boroOrn(CH=NH)--OH.HCl]
> 6.30 | – | CC(C)(C)OC(=O)NC(Cc1ccccc1)C(=O)N1CCCC1C(=O)NC(CCCONC(=N)N)B1OC2CC3CC(C3(C)C)C2(C)O1 (stereo not shown) [Example 104, Boc--(D)Phe--Pro--boroGly[(CH2)3 --ONHC(=NH)NH2]--C10 H16.HCl]
> 6.30 | – | CN[C@H](Cc1ccccc1)C(=O)N1CCCC1C(=O)NC(CCCOC)B1OC2CC3CC(C3(C)C)C2(C)O1 (stereo partly shown) [Example 142, N-methyl-(D)--Phe--Pro--boroGly[(CH2)3 --OCH3]--C10 H16]
> 6.30 | – | Cbz--(D)Phe--Pro--boroIrg(CH3)--C10 H16.HBr [Example 51]
> 6.30 | – | PhCH2 SO2 --(D)Phe--Pro--boroOrn(CH=NH)--OH.HCl [Example 62]
